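Briefly, cells in 96-well plates were exposed to five compound concentrations for 48 h, and endpoints were estimated by linear interpolation. Definition used: TGI = concentration required for complete inhibition of growth.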
Key:
Experiment in all cases: NCI-60 cell line screen, 48 h
HCT-116 colon = test system: HCT-116 colon
SN12C renal = test system: SN12C renal
OVCAR-8 ovarian = test system: OVCAR-8 ovarian
SK-OV-3 ovarian = test system: SK-OV-3 ovarian
KM12 colon = test system: KM12 colon
SF-539 CNS = test system: SF-539 CNS
NCI-H522 lung = test system: NCI-H522 lung
UACC-62 melanoma = test system: UACC-62 melanoma
ACHN renal = test system: ACHN renal
HL-60(TB) leukemia = test system: HL-60(TB) leukemia

SMILES	TGI (HCT-116 colon)	TGI (SN12C renal)	TGI (OVCAR-8 ovarian)	TGI (SK-OV-3 ovarian)	TGI (KM12 colon)	TGI (SF-539 CNS)	TGI (NCI-H522 lung)	TGI (UACC-62 melanoma)	TGI (ACHN renal)	TGI (HL-60(TB) leukemia)
CC(C)c1nccn1Cc1ccc(Cl)cc1Cl	63.4 µM	88.7 µM	> 100 µM	> 100 µM	> 100 µM	> 100 µM	97.9 µM	> 100 µM	> 100 µM	–
O=C1C(=Cc2ccccc2[N+](=O)[O-])N=C(c2ccccc2)N1n1c(-c2ccccc2)nc2ccccc2c1=O	33.7 µM	87.3 µM	78.7 µM	> 100 µM	66.2 µM	> 100 µM	31.8 µM	46.6 µM	> 100 µM	–
Cc1cccc(C(O)c2cccnc2)c1O (stereo not drawn)	> 100 µM	> 100 µM	> 100 µM	–	> 100 µM	> 100 µM	> 100 µM	> 100 µM	> 100 µM	> 100 µM
COc1cc(S(=O)(=O)N/N=C/c2cc(Br)c(O)c(OC)c2)c(OC)cc1NC(C)=O	> 100 µM	> 100 µM	> 100 µM	> 100 µM	> 100 µM	41.8 µM	–	–	> 100 µM	58 µM
O=c1c(-c2ccc(O)cc2)coc2cc(O)cc(O)c12	–	> 100 µM	> 100 µM	–	> 100 µM	> 100 µM	> 100 µM	> 100 µM	> 100 µM	> 100 µM
COc1ccccc1N1C(=O)/C(=C\c2cccc(Oc3ccccc3)c2)S(=O)(=O)C1c1ccccc1 (stereo not drawn)	> 100 µM	> 100 µM	–	> 100 µM	> 100 µM	–	> 100 µM	> 100 µM	> 100 µM	–
CCOC(=O)c1c(-c2ccc(OC)c(O)c2)c(C#N)c(=S)n(C2OC(CO)C(O)C(O)C2O)c1-c1ccccc1 (stereo not drawn)	> 100 µM	> 100 µM	–	–	> 100 µM	–	–	> 100 µM	> 100 µM	–
Cc1cc(C)c2c(c1)CC1(Cc3c(C)cc(C)cc3C1=O)C2=O (stereo not drawn)	–	> 100 µM	> 100 µM	–	> 100 µM	> 100 µM	> 100 µM	> 100 µM	> 100 µM	> 100 µM
O=C1OC2C=CC1C1(CCOC1=O)C2 (stereo not drawn)	> 100 µM	> 100 µM	> 100 µM	–	> 100 µM	> 100 µM	> 100 µM	94.6 µM	> 100 µM	> 100 µM
COC(=O)/C=C\C(C#N)(C#N)N=Cc1ccsc1	3.57 µM	9.73 µM	13.3 µM	31.3 µM	28.9 µM	–	1.99 µM	9.69 µM	2.72 µM	–
CC1(C)O[C@@H](CP(c2cccc3ccccc23)c2cccc3ccccc23)[C@H](CP(c2cccc3ccccc23)c2cccc3ccccc23)O1	> 100 µM	> 100 µM	> 100 µM	> 100 µM	> 100 µM	–	> 100 µM	> 100 µM	> 100 µM	–
O=C(Nc1nc(C23CC4CC(CC(C4)C2)C3)cs1)c1cc2cc([N+](=O)[O-])ccc2oc1=O	> 100 µM	> 100 µM	> 100 µM	–	> 100 µM	> 100 µM	> 100 µM	–	> 100 µM	> 100 µM
Oc1ccc2ccccc2c1OCc1nnc(CCCCCCCCc2nnc(COc3c(O)ccc4ccccc34)o2)o1	54.5 µM	> 100 µM	–	> 100 µM	> 100 µM	–	> 100 µM	> 100 µM	> 100 µM	–
O=C(NCc1ccccc1)c1c(O)c2ccccc2[nH]c1=O	> 100 µM	> 100 µM	> 100 µM	–	> 100 µM	> 100 µM	> 100 µM	–	> 100 µM	> 100 µM
CN(CCN(C)C(=O)CCn1ccc(=O)[nH]c1=O)C(=O)CCn1ccc(=O)[nH]c1=O	> 100 µM	> 100 µM	> 100 µM	–	> 100 µM	> 100 µM	> 100 µM	> 100 µM	> 100 µM	> 100 µM
CCCCCCc1cn([C@H]2C[C@H](O)[C@@H](CO)O2)c(=O)[nH]c1=O	> 100 µM	> 100 µM	> 100 µM	–	> 100 µM	> 100 µM	> 100 µM	> 31.6 µM	–	> 100 µM
CC1(C)Oc2ccc3c(=O)c4ccccc4oc3c2C1C(=O)O (stereo not drawn)	> 100 µM	> 100 µM	> 100 µM	> 100 µM	–	> 100 µM	> 100 µM	> 100 µM	–	–
O=C(C=P(c1ccccc1)(c1ccccc1)c1ccccc1)c1ccc(-c2ccc(F)cc2F)cc1	8.81 µM	5.31 µM	–	8.63 µM	13.8 µM	10.8 µM	–	4.25 µM	6.76 µM	5.13 µM

— PubChem BioAssay (NCI)
